The source of these data is patent US9120812B2, “Pyrimidooxazocine derivatives as mTOR-inhibitors” (SANOFI, priority 2012, dated 2015).

Assay [1] concerns the target mTOR (human recombinant aa mTOR 1360-2549) (Homo sapiens (Human), UniProt P42345). Kind of assay: mTOR enzymatic test by TR-FRET (phosphorylation of GFP-4EBP1). Format: biochemical. The protocol: Model 1: mTOR Enzymatic Test by TR-FRET (Time-resolved Fluorescence Resonance Energy Transfer).
The test detects the phosphorylation of the substrate GFP-4EBP1 using a terbium-labelled antibody that is specific for the phospho-Thr46 epitope. Binding of the Tb-antibody to the phosphorylated GFP peptide allows the transfer of energy from Tb, excited at 340 nm, to GFP with an increase in the fluorescence emission of the GFP at 520 nm. […] The mixture is incubated for 30 minutes at room temperature. 10 μl of solution are taken up and the reaction is quenched by adding 10 μl of Tb-antibody solution (Invitrogen PV4757)/EDTA (2 nM Tb-Ac and 10 mM EDTA final). After 60 minutes at room temperature, the fluorescence at 490 nm, from the Tb emission, and at 520 nm, from the GFP emission, is measured in a BMG PHERAstar reader equipped with a Lanthascreen™ filter (excitation at 340 nm, emission at 490 and 520 nm). The results are given in the form of the 520/490 ratio.
(Time-resolved FRET reads energy transfer from a long-lived donor to a nearby acceptor.)

For the next assay, the target named is PI3Kα (p110α/p85α) (Homo sapiens (Human), UniProt P42336). Kind of assay: PI3Kα enzymatic test by measuring the consumption of ATP. Format: biochemical. As for the experimental part: Model 2: PI3Kα Enzymatic Test by Measuring the Consumption of ATP.
The test uses a lucifeurerin/luciferase system to measure the concentration of ATP and its consumption during the enzymatic reaction. The test is performed in 96-well format (Corning/Costar 96 black flat-bottomed half-wells plate, ref. 3694) in a total volume of 30 μl.
To 1 μl of inhibitor in 100% DMSO are added (final concentrations) 50 μM of the substrate PIP2 ((L-α-phosphatidyl-D-myoinositol 4,5-bisphosphate, Echelon 117P-4516-0500), 2 μM of ATP and 1.7 μg/ml of PI3Kα, (p110α/p85α, Invitrogen PV4788) in a buffer of Tris/HCl 50 mM pH 7.5, EGTA 1 mM, MgCl2 10 mM, Chaps 0.03%, 1 mM DTT). After 90 minutes, the reaction is quenched by adding 20 μl/well of KinaseGlo reagent (Promega V6713). After 10 minutes in the dark, the luminescence is read on the PHERAStar microplate reader (reading at 0.8 sec/well).
The IC50 values are determined by the preparation of successive threefold dilutions on at least a scale of 10 000.

For a further assay, the system named is U87MG tumour cells. Kind of assay: Test of in vitro proliferation of U87MG tumour cells. It counts as cell-based. As to conditions: Homo sapiens, U-87 MG, 72 h, U87MG cells, 72 hours; read-out: U87 Cell Proliferation IC50. The protocol:
Model 4: Test of in vitro Proliferation of U87MG Tumour Cells.
The cell growth is determined with the reagent CellTiter 96 AQueous One Solution Cell Proliferation Assay from Promega (Cat. No. G3581).

Bounds are passed on as bounds.

Chain of mTOR (human recombinant aa mTOR 1360-2549) (P42345 1360-2549): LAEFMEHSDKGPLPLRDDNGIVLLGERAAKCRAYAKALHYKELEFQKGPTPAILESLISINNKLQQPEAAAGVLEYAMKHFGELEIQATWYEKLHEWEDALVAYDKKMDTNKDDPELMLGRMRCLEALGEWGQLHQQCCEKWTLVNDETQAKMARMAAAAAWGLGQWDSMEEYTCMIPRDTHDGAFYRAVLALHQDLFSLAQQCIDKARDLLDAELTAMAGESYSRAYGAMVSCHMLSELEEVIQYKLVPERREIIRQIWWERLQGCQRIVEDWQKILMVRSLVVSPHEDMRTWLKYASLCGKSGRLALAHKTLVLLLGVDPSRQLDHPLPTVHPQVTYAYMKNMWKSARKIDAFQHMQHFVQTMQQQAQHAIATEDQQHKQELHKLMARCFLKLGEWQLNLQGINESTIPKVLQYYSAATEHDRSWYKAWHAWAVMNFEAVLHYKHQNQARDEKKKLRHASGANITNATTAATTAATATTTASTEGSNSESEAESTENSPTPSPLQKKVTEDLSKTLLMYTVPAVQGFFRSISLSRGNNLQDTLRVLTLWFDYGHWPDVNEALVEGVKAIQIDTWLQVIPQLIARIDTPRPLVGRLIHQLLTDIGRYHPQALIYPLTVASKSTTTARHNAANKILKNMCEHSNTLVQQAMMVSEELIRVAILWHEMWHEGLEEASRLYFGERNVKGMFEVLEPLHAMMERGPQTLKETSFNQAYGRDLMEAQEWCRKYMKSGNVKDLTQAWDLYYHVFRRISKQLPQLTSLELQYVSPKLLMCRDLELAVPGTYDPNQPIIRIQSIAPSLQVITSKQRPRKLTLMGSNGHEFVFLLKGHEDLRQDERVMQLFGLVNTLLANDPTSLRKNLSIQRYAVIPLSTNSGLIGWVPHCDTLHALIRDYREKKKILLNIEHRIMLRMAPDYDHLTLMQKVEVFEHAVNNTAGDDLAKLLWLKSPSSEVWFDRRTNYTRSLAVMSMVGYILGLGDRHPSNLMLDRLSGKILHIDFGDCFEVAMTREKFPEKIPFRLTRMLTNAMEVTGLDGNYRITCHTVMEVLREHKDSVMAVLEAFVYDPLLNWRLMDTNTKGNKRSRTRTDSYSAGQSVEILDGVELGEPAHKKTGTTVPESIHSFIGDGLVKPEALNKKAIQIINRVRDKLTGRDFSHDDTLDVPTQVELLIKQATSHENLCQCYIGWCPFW
Chain of PI3Kα (p110α/p85α) (P42336 whole entry): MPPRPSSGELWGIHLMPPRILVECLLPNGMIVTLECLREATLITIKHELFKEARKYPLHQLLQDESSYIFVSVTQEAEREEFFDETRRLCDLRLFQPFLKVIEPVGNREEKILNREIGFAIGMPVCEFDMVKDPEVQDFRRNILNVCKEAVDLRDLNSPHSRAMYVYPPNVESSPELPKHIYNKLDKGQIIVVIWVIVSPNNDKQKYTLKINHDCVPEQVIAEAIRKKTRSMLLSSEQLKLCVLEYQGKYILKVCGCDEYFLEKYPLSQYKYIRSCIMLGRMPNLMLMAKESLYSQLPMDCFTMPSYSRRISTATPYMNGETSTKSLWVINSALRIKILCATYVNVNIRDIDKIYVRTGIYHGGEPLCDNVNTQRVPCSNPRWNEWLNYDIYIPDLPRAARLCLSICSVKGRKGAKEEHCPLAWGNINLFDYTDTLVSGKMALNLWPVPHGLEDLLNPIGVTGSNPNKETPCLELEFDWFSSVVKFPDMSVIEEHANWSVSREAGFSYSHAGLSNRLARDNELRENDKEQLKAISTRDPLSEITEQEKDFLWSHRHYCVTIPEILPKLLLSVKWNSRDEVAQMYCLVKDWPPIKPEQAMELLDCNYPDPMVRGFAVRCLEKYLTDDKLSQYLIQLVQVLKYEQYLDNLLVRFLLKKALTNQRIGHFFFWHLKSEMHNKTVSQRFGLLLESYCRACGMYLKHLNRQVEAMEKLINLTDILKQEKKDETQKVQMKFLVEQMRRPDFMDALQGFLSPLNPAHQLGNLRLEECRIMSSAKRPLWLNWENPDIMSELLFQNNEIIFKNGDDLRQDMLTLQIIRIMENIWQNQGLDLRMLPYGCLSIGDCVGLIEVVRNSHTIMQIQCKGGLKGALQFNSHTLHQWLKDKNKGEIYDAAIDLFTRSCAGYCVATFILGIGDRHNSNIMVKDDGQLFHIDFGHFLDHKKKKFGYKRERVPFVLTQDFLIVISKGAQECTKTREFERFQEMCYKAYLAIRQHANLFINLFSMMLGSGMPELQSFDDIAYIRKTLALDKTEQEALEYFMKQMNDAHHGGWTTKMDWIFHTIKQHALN
Chain of PI3Kα (p110α/p85α) (P27986 whole entry partner): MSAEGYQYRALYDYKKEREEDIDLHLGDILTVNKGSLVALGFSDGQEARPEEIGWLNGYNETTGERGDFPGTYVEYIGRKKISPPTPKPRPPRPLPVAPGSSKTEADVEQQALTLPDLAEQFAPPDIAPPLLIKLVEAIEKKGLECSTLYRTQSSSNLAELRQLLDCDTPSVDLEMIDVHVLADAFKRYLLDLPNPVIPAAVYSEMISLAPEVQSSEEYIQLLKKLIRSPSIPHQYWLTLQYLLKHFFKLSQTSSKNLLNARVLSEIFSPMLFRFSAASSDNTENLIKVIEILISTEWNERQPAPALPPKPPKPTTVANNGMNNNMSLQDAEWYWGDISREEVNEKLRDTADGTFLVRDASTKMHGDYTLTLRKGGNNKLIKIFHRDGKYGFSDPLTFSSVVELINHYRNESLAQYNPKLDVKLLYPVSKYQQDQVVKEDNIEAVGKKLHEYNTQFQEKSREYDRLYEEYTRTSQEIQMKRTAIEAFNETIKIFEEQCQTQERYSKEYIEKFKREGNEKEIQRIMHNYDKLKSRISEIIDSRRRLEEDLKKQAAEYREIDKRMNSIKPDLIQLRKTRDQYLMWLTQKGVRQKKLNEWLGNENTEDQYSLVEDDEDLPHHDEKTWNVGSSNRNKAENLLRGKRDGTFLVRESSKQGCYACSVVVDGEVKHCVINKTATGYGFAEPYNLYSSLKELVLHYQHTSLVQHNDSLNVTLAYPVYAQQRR

Consider `COCCN1CC(C)(C)Oc2nc(N3CCOC[C@@H]3C)nc(-c3ccc(NC(=O)NCC(C)(C)O)c(F)c3)c2C1=O` [Example 226, 1-{2-Fluoro-4-[6-(2-methoxyethyl)-8,8-dimethyl-2-((S)-3-methylmorpholin-4-yl)-5-oxo-5,6,7,8-tetrahydro-9-oxa-1,3,6-triazabenzocyclohepten-4-yl]phenyl}-3-(2-hydroxy-2-methylpropyl)urea], for which, in assay [1], the IC50 amounted to 1.28 µM. Besides, the “PI3Ka IC50” value on PI3Kα (p110α/p85α) was greater than 10 µM.
Turning to `CCN1CC(C)(C)Oc2nc(N3CC4CCC(C3)O4)nc(-c3ccc(NC(=O)NCc4ccc(OC)nc4)c(F)c3)c2C1=O` [Example 145, 1-{4-[6-Ethyl-8,8-dimethyl-2-(8-oxa-3-azabicyclo[3.2.1]oct-3-yl)-5-oxo-5,6,7,8-tetrahydro-9-oxa-1,3,6-triazabenzocyclohepten-4-yl]-2-fluorophenyl}-3-(6-methoxypyridin-3-ylmethyl)urea], the IC50 in assay [1] was 2.98 µM; with U87MG tumour cells, greater than 10 µM. Moreover, at PI3Kα (p110α/p85α), the “PI3Ka IC50” value was greater than 10 µM.
As for `CCNC(=O)Nc1ccc(-c2nc(N3CCOCC3)nc3c2C(=O)N(CC)CCO3)cc1` [Example 97, 1-Ethyl-3-[4-(6-ethyl-2-morpholin-4-yl-5-oxo-5,6,7,8-tetrahydro-9-oxa-1,3,6-triazabenzocyclohepten-4-yl)phenyl]urea], the IC50 in assay [1] is 0.8 µM; in the assay with U87MG tumour cells, greater than 10 µM. Moreover, the “PI3Ka IC50” value at PI3Kα (p110α/p85α) was found to be 2.159 µM.
The like results for `CCC(=O)Nc1ccc(-c2nc(N3CC4CCC(C3)O4)nc3c2C(=O)N(CC)CC(C)(C)O3)cc1` [Example 108, N-{4-[6-Ethyl-8,8-dimethyl-2-(8-oxa-3-azabicyclo[3.2.1]oct-3-yl)-5-oxo-5,6,7,8-tetrahydro-9-oxa-1,3,6-triazabenzocyclohepten-4-yl]phenyl}propionamide] were, in that order, 0.472 µM, 4.45 µM and greater than 10 µM.
In the case of `CCN1CC(C)(C)Oc2nc(N3CC4CCC(C3)O4)nc(-c3ccc(NC(=O)Nc4cccc(OC)n4)c(F)c3)c2C1=O` [Example 142, 1-{4-[6-Ethyl-8,8-dimethyl-2-(8-oxa-3-azabicyclo[3.2.1]oct-3-yl)-5-oxo-5,6,7,8-tetrahydro-9-oxa-1,3,6-triazabenzocyclohepten-4-yl]-2-fluorophenyl}-3-(6-methoxypyridin-2-yl)urea], the IC50 worked out at 0.495 µM in assay [1] and 3.1 µM in the assay with U87MG tumour cells. The “PI3Ka IC50” value at PI3Kα (p110α/p85α) was greater than 10 µM.
As to `CCNC(=O)Nc1ccc(-c2nc(N3CC4CCC(C3)O4)nc3c2CN(CC)CC(C)(C)O3)cc1` [Example 113, 1-Ethyl-3-{4-[6-ethyl-8,8-dimethyl-2-(8-oxa-3-azabicyclo[3.2.1]oct-3-yl)-5,6,7,8-tetrahydro-9-oxa-1,3,6-triazabenzocyclohepten-4-yl]phenyl}urea], the IC50 in assay [1] is 3.96 µM; with U87MG tumour cells it was greater than 10 µM. In addition, the “PI3Ka IC50” value on PI3Kα (p110α/p85α) is greater than 10 µM.
On to `CCN1CC(C)(C)Oc2nc(N3CC4CCC(C3)O4)nc(-c3ccc(NC(=O)NCC4CCCO4)c(F)c3)c2C1=O` (stereo not drawn) [Example 128, 1-{4-[6-Ethyl-8,8-dimethyl-2-(8-oxa-3-azabicyclo[3.2.1]oct-3-yl)-5-oxo-5,6,7,8-tetrahydro-9-oxa-1,3,6-triazabenzocyclohepten-4-yl]-2-fluorophenyl}-3-(tetrahydrofuran-2-ylmethyl)urea], for which the IC50 in assay [1] was 3.48 µM; with U87MG tumour cells it was greater than 10 µM. The “PI3Ka IC50” value at PI3Kα (p110α/p85α) is greater than 10 µM.
Consider `CCNC(=O)Nc1ccc(-c2nc(N3C[C@@H](C)O[C@@H](C)C3)nc3c2C(=O)N(CC)CC(C)(C)CO3)cc1` [Example 109, 1-{4-[2-((2S,6R)-2,6-Dimethylmorpholin-4-yl)-6-ethyl-8,8-dimethyl-5-oxo-6,7,8,9-tetrahydro-5H-10-oxa-1,3,6-triazabenzocycloocten-4-yl]phenyl}-3-ethylurea], for which the IC50 in assay [1] stood at 7.77 µM. The “PI3Ka IC50” value on PI3Kα (p110α/p85α) amounted to 2.046 µM.
For `CCN1CC(C)(C)Oc2nc(N3CC4CCC(C3)O4)nc(-c3ccc(N)nc3)c2C1=O` [Example 107, 4-(6-Aminopyridin-3-yl)-6-ethyl-8,8-dimethyl-2-(8-oxa-3-azabicyclo[3.2.1]oct-3-yl)-7,8-dihydro-6H-9-oxa-1,3,6-triazabenzocyclohepten-5-one], the values for the IC50 (in assay [1]; in the assay with U87MG tumour cells) were 2.65 µM and greater than 10 µM, respectively. Besides, on PI3Kα (p110α/p85α), the “PI3Ka IC50” value turned out to be 9.38 µM.
In the case of `CCNC(=O)Nc1ccc(-c2nc(N3CC4CCC(C3)O4)nc3c2C(=O)N(C[C@@H]2CCCN2C(=O)OCC)CC(C)(C)O3)cc1F` [Example 5, (S)-2-[4-[4-(3-ethylureido)-3-fluorophenyl]-8,8-dimethyl-2-(8-oxa-3-azabicyclo[3.2.1]oct-3-yl)-5-oxo-7,8-dihydro-5H-9-oxa-1,3,6-triazabenzocyclohepten-6-ylmethyl]pyrrolidine-1-carboxylic acid ethyl ester], the IC50 is 0.905 µM in assay [1] and greater than 10 µM with U87MG tumour cells. For the same molecule, the “PI3Ka IC50” value at PI3Kα (p110α/p85α) is greater than 10 µM.
On to `CCN1CC(C)(C)Oc2nc(N3CC4CCC(C3)O4)nc(-c3ccc(NS(=O)(=O)CC)cc3)c2C1=O` [Example 111, Ethanesulfonic acid {4-[6-ethyl-8,8-dimethyl-2-(8-oxa-3-azabicyclo[3.2.1]oct-3-yl)-5-oxo-5,6,7,8-tetrahydro-9-oxa-1,3,6-triazabenzocyclohepten-4-yl]phenyl}amide], for which the IC50 in assay [1] turned out to be 6.35 µM. For the same molecule, the “PI3Ka IC50” value at PI3Kα (p110α/p85α) is greater than 10 µM.
Turning to `CCN1CC(C)(C)Oc2nc(N3CC4CCC(C3)O4)nc(-c3ccc(OC)c(CO)c3)c2C1=O` [Example 101, 6-Ethyl-4-(3-hydroxymethyl-4-methoxyphenyl)-8,8-dimethyl-2-(8-oxa-3-azabicyclo[3.2.1]oct-3-yl)-7,8-dihydro-6H-9-oxa-1,3,6-triazabenzocyclohepten-5-one], the IC50 in assay [1] is 4.04 µM; with U87MG tumour cells, greater than 10 µM.
Consider `CCN1CC(C)(C)Oc2nc(N3CC4CCC(C3)O4)nc(-c3ccc(NC(=O)NC(C)(C)CO)c(F)c3)c2C1=O` [Example 224, 1-{4-[6-Ethyl-8,8-dimethyl-2-(8-oxa-3-azabicyclo[3.2.1]oct-3-yl)-5-oxo-5,6,7,8-tetrahydro-9-oxa-1,3,6-triazabenzocyclohepten-4-yl]-2-fluorophenyl}-3-(2-hydroxy-1,1-dimethylethyl)urea], for which, in assay [1], the IC50 was found to be 1.12 µM. In addition, on PI3Kα (p110α/p85α), the “PI3Ka IC50” value is greater than 10 µM.
For `CCNC(=O)Nc1ccc(-c2nc(N3CC4CCC(C3)O4)nc3c2C(=O)N(C[C@@H]2CCCN2C(C)=O)CC(C)(C)O3)cc1F` [Example 6, 1-{4-[6-((S)-1-acetylpyrrolidin-2-ylmethyl)-8,8-dimethyl-2-(8-oxa-3-azabicyclo[3.2.1]oct-3-yl)-5-oxo-5,6,7,8-tetrahydro-9-oxa-1,3,6-triazabenzocyclohepten-4-yl]-2-fluorophenyl}-3-ethylurea], the IC50 came to 1.07 µM in assay [1] and 7.15 µM with U87MG tumour cells. Besides, the “PI3Ka IC50” value on PI3Kα (p110α/p85α) was greater than 10 µM.
Take `CCNC(=O)Nc1ccc(-c2nc(N3CC4CCC(C3)O4)nc3c2C(=O)N(CCCO)CC(C)(C)O3)cc1` [Example 9, 1-ethyl-3-{4-[6-(3-hydroxypropyl)-8,8-dimethyl-2-(8-oxa-3-azabicyclo[3.2.1]oct-3-yl)-5-oxo-5,6,7,8-tetrahydro-9-oxa-1,3,6-triazabenzocyclohepten-4-yl]phenyl}urea]: the IC50 came out at 0.065 µM in assay [1] and 2.5 µM in the assay on U87MG tumour cells. Besides, the “PI3Ka IC50” value at PI3Kα (p110α/p85α) is greater than 10 µM.
Regarding `CCNC(=O)Nc1ccc(-c2nc(N3CC4CCC(C3)O4)nc3c2C(=O)N(CC)CC(C)(C)O3)cn1` [Example 17, 1-ethyl-3-{5-[6-ethyl-8,8-dimethyl-2-(8-oxa-3-azabicyclo[3.2.1]oct-3-yl)-5-oxo-5,6,7,8-tetrahydro-9-oxa-1,3,6-triazabenzocyclohepten-4-yl]pyridin-2-yl}urea], the IC50 in assay [1] is 2.49 µM; with U87MG tumour cells, greater than 10 µM. The “PI3Ka IC50” value on PI3Kα (p110α/p85α) was greater than 10 µM.
Consider `CC1(C)CNC(=O)c2c(nc(N3CCOCC3)nc2-c2ccc(N)nc2)O1` [Example 95, 4-(6-Aminopyridin-3-yl)-8,8-dimethyl-2-morpholin-4-yl-7,8-dihydro-6H-9-oxa-1,3,6-triazabenzocyclohepten-5-one], for which the IC50 in assay [1] amounted to 0.624 µM. Also, the “PI3Ka IC50” value at PI3Kα (p110α/p85α) is greater than 10 µM.
